Results: article PMC2553845, “A Specificity Map for the PDZ Domain Family” (PLoS Biology, 2008)
“Also recorded” adds a separate entry of the source. Where two headings read alike, the source gives them in different places. Where no end group is shown, it is not given here.

How the values were obtained:
SCRIB PDZ domains = assay: Competition ELISA, binding to the SCRIB PDZ domains; set-up: species or system Human
Description: (§1) Peptides were synthesized with acetylated C termini. The binding affinities of peptides for PDZ domains were determined as 50% inhibition concentration (IC50) values using competition ELISAs, as described. The IC50 value was defined as the concentration of peptide that blocked 50% of PDZ domain binding to immobilized peptide.

[1] = molecular target: T1, first PDZ domain of ZO-1 (TJP1–1) (Homo sapiens, UniProt Q07157); assay: biochemical; assay type: binding
T1 construct: the first PDZ domain of ZO-1 (TJP1–1); GST; made in house; host or cells: E. coli
T1 sequence (Q07157 23-110 limits assumed): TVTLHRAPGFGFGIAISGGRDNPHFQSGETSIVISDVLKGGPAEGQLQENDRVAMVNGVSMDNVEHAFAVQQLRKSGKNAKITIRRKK

SCRIB-2 = molecular target: T2, SCRIB-2 (Homo sapiens, UniProt Q14160); assay: Competition ELISA, peptide affinity for PDZ domain; assay type: binding
T2 construct: synthetic peptide that targets SCRIB PDZ domains 1, 2, and 3; GST; made in house; host or cells: E. coli
T2 sequence (Q14160 862-950 limits assumed): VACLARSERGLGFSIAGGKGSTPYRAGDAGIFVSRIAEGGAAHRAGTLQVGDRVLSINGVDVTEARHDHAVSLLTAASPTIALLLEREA
Description: as §1

SCRIB-1 = molecular target: T3, SCRIB-1 (Homo sapiens, UniProt Q14160); assay: Competition ELISA, peptide affinity for PDZ domain; assay type: binding
T3 construct: synthetic peptide that targets SCRIB PDZ domains 1, 2, and 3; GST; made in house; host or cells: E. coli
T3 sequence (Q14160 728-815 limits assumed): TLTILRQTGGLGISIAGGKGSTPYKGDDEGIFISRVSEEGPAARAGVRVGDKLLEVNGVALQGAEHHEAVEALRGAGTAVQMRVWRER
Description: as §1

SCRIB-3 = molecular target: T4, SCRIB-3 (Homo sapiens, UniProt Q14160); assay: Competition ELISA, peptide affinity for PDZ domain; assay type: binding
T4 construct: synthetic peptide that targets SCRIB PDZ domains 1, 2, and 3; GST; made in house; host or cells: E. coli
T4 sequence (Q14160 1004-1093 limits assumed): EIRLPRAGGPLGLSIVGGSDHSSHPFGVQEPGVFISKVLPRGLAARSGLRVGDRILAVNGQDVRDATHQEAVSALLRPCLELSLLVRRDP
Description: as §1

[2] = system: Naive Crtam−/− CD4 T cells; assay: T cell proliferation, [3H]-thymidine incorporation; assay type: cell-based; settings: Crtam−/− CD4 T cells electroporated with Crtam plasmid; peptide 1.0 μM; [3H]-thymidine added after 42 h, harvested 8 h later; representative of three independent experiments
Description: (§2) Naïve Crtam^−/− CD4 T cells were purified and activated with plate-bound anti-CD3 and anti-CD28, as described. On day 4, T cells were electroporated with 4 μg of pIRES_GFP or pIRES_GFP/Crtam plasmid DNA by Amaxa Nucleofector (program X-01). Synthetic peptides (1.0 μM) were added into the cultures, and after 6 h, transfected cells were restimulated at 1 × 10^6 cells/ml with plate-bound antibodies and were fixed 14 h later for Talin staining. After 42 h, [^3H]-thymidine (1 μCi/well) was added, and the plates were harvested 8 h later.

[3] = system: Naive Crtam−/− CD4 T cells; assay: T cell polarization, Talin staining; assay type: cell-based; settings: Crtam−/− CD4 T cells electroporated with Crtam plasmid; peptide 1.0 μM; restimulated after 6 h, fixed 14 h later
Description: as §2

**Q.** With Ac-HMARRVESEV [compound 9] as the substance, how does the “Interaction with the SCRIB PDZ domains (in words)” value (SCRIB PDZ domains) read?
**A.** interact with the SCRIB PDZ domains

**Q.** How did the IC50 [1] turn out when Ac-KMARAARSKV-OH [peptide 11] was run?
**A.** > 500 µM

**Q.** What about the IC50 (SCRIB-2) of the same substance?
**A.** > 500 µM

**Q.** What about the IC50 (SCRIB-1) of the same substance?
**A.** > 500 µM

**Q.** And the IC50 (SCRIB-3)?
**A.** > 500 µM

**Q.** And the “Interaction with the SCRIB PDZ domains (in words)” value (SCRIB PDZ domains)?
**A.** does not

**Q.** Which “Interaction with the SCRIB PDZ domains (in words)” value (SCRIB PDZ domains) does the source give for Ac-KMERTIESEV [compound 10] here?
**A.** interact with the SCRIB PDZ domains

**Q.** How did the “Interaction with the ZO-1 PDZ domain (TJP1–1) (in words)” value [1] turn out when “Ac-PPRRHRETYV (N-terminus assumed) [peptide 12]” was run?
**A.** bound to both

**Q.** And the “Interaction with the SCRIB PDZ domains (in words)” value (SCRIB PDZ domains)?
**A.** bound to both

**Q.** How did the “Effect on T cell proliferation ([3H]-thymidine incorporation)” value [2] turn out when “Ac-RQIKIWFQNRRMKWKKRSWFEAWA (N-terminus assumed) [peptide 15]” was run?
**A.** has no effect

**Q.** What about the “Interaction with the SCRIB PDZ domains (in words)” value (SCRIB PDZ domains; in vitro, synthesized peptides) of the same substance?
**A.** nonbinding

**Q.** What about the “Effect on late phase of T cell polarization (Talin staining)” value [3] of the same substance?
**A.** has no effect

**Q.** What does the source list for “Ac-RQIKIWFQNRRMKWKKRSWFETWV (N-terminus assumed) [peptide 14]”?
**A.** Effect on T cell proliferation ([3H]-thymidine incorporation) [2]: triggers T cell proliferation; also recorded: reverses the hypoproliferative effects of Crtam; Interaction with the SCRIB PDZ domains (in words) (SCRIB PDZ domains; in vitro, synthesized peptides): binds to the SCRIB PDZ domains with high affinity; Effect on late phase of T cell polarization (Talin staining) [3]: causes loss of late-phase T cell polarization

**Q.** With “Ac-RRRKRKRTYL (N-terminus assumed) [peptide 13]” as the substance, how does the “Interaction with the ZO-1 PDZ domain (TJP1–1) (in words)” value [1] read?
**A.** interacted only with this domain

**Q.** What about the “Interaction with the SCRIB PDZ domains (in words)” value (SCRIB PDZ domains) of the same substance?
**A.** interacted only with this domain
